The results in this text go back to article PMC5979600, “An Organic Solvent-Tolerant Lipase with Both Hydrolytic and Synthetic Activities from the Oleaginous Fungus Mortierella echinosphaera” (International Journal of Molecular Sciences, 2018).

By Km is commonly meant the substrate concentration at which the rate is half of its maximum.

In this assay the test system is T1, extracellular lipase from Mortierella echinosphaera CBS 575.75 (M. echinosphaera lipase).
T1 construct: native enzyme purified from culture filtrate (ammonium sulfate, Sephadex G-75, Macro-Prep High Q, Sephacryl S-200 HR); about 30 kDa by SDS-PAGE
Kind of assay: p-nitrophenol release, Lineweaver-Burk. The class given is biochemical. The conditions noted are these: pH 6.8, 25 °C, 30 min, 0.05-3.2 mM substrate; free enzyme.

Turning to `CCCCCCCCCCCCCCCC(=O)Oc1ccc([N+](=O)[O-])cc1` [p-nitrophenyl palmitate], the Km came out at 336 µM.

Regarding `CCCCCCCCCC(=O)Oc1ccc([N+](=O)[O-])cc1` [pNP-decanoate], the Km came to 333 µM.
